Measurements reported in publication PMC10423561, “Effects of the CYP3A inhibitors, voriconazole, itraconazole, and fluconazole on the pharmacokinetics of osimertinib in rats” (PeerJ, 2023).
“And” between values parts separate entries of the source, which are not always exact repeats. Identical values can stand only once.

Test: Stability of OSIM in rat plasma QC samples (bench-top, autosampler, freeze-thaw, long-term)
Format: in vitro ADME
Details: for B-LQC RE, AVERAGE / B-LQC measured concentration, AVERAGE / B-LQC RE / B-LQC measured concentration: nominal 5.02 ng/ml; for B-LQC RE, AVERAGE / B-LQC measured concentration, AVERAGE / B-MQC RE, AVERAGE / B-MQC measured concentration, AVERAGE / B-HQC RE, AVERAGE / B-HQC measured concentration, AVERAGE: average of 4; for B-LQC RE / B-LQC measured concentration / B-MQC RE / B-MQC measured concentration / B-HQC RE / B-HQC measured concentration: single replicates; for B-MQC RE, AVERAGE / B-MQC measured concentration, AVERAGE / B-MQC RE / B-MQC measured concentration: nominal 200.8 ng/ml; for B-HQC RE, AVERAGE / B-HQC measured concentration, AVERAGE / B-HQC RE / B-HQC measured concentration: nominal 401.6 ng/ml; for Relative stability: n=4
Description: Bench-top stability was tested by placing the pretreatment samples at room temperature ([…]) for 6 h, autosampler stability was assessed by placing the prepared sample in the injector for 24 h, freeze-thaw stability was determined to be adequate over at least three cycles (from −30 °C to 25 °C), and long-term stability was assessed to be at least one month before sample preparation (at −30 °C for 30 d). For all stability results, the average %RE of OSIM ranged from −11.04% to 7.48% across the three QC concentrations, with the %CV less than 6.42% (Table S4).

Q: What does the source list for `C=CC(=O)Nc1cc(Nc2nccc(-c3cn(C)c4ccccc34)n2)c(OC)cc1N(C)CCN(C)C` [OSIM, Osimertinib]?
A: B-LQC RE, AVERAGE (-30℃(30 day)): -11.04%; B-LQC measured concentration, AVERAGE (-30℃(30 day)): 4.47 ng/mL; B-LQC RE (-30℃(30 day)): -11.88% and -13.96% and -8.90% and -9.43%; B-LQC measured concentration (-30℃(30 day)): 4.42 ng/mL and 4.32 ng/mL and 4.57 ng/mL and 4.55 ng/mL; B-MQC RE, AVERAGE (-30℃(30 day)): -0.87%; B-MQC measured concentration, AVERAGE (-30℃(30 day)): 199.05 ng/mL; B-MQC RE (-30℃(30 day)): 4.20% and -2.59% and -1.56% and -3.53%; B-MQC measured concentration (-30℃(30 day)): 209.23 ng/mL and 195.60 ng/mL and 197.67 ng/mL and 193.72 ng/mL; B-HQC RE, AVERAGE (-30℃(30 day)): -1.09%; B-HQC measured concentration, AVERAGE (-30℃(30 day)): 397.22 ng/mL; B-HQC RE (-30℃(30 day)): -0.61% and 0.80% and -5.35%; B-HQC measured concentration (-30℃(30 day)): 399.15 ng/mL and 404.80 ng/mL and 380.13 ng/mL; B-LQC RE, AVERAGE (AUTO(24h)): -6.71%; B-LQC measured concentration, AVERAGE (AUTO(24h)): 4.68 ng/mL; B-LQC RE (AUTO(24h)): -12.78% and -6.93% and -1.98% and -5.16%; B-LQC measured concentration (AUTO(24h)): 4.38 ng/mL and 4.67 ng/mL and 4.92 ng/mL and 4.76 ng/mL; B-MQC RE, AVERAGE (AUTO(24h)): -1.60%; B-MQC measured concentration, AVERAGE (AUTO(24h)): 197.59 ng/mL; B-MQC RE (AUTO(24h)): -1.66% and 4.91% and -1.78% and -7.87%; B-MQC measured concentration (AUTO(24h)): 197.46 ng/mL and 210.66 ng/mL and 197.22 ng/mL and 184.99 ng/mL; B-HQC RE, AVERAGE (AUTO(24h)): -4.24%; B-HQC measured concentration, AVERAGE (AUTO(24h)): 384.55 ng/mL; B-HQC RE (AUTO(24h)): -2.81% and -5.55% and -7.95% and -0.66%; B-HQC measured concentration (AUTO(24h)): 390.30 ng/mL and 379.32 ng/mL and 369.66 ng/mL and 398.95 ng/mL; B-LQC RE, AVERAGE (ROOM(6h)): 7.48%; B-LQC measured concentration, AVERAGE (ROOM(6h)): 5.40 ng/mL; B-LQC RE (ROOM(6h)): 11.63% and 8.45% and 4.43% and 5.39%; B-LQC measured concentration (ROOM(6h)): 5.60 ng/mL and 5.44 ng/mL and 5.24 ng/mL and 5.29 ng/mL; B-MQC RE, AVERAGE (ROOM(6h)): 5.16%; B-MQC measured concentration, AVERAGE (ROOM(6h)): 211.16 ng/mL; B-MQC RE (ROOM(6h)): 7.61% and 11.08% and 3.27% and -1.32%; B-MQC measured concentration (ROOM(6h)): 216.07 ng/mL and 223.04 ng/mL and 207.36 ng/mL and 198.15 ng/mL; B-HQC RE, AVERAGE (ROOM(6h)): -3.51%; B-HQC measured concentration, AVERAGE (ROOM(6h)): 387.49 ng/mL; B-HQC RE (ROOM(6h)): -6.10% and -7.91% and 2.69% and -2.75%; B-HQC measured concentration (ROOM(6h)): 377.12 ng/mL and 369.84 ng/mL and 412.42 ng/mL and 390.57 ng/mL; B-LQC RE, AVERAGE (after RTF(-30℃30 day)): 6.03%; B-LQC measured concentration, AVERAGE (after RTF(-30℃30 day)): 5.32 ng/mL; B-LQC RE (after RTF(-30℃30 day)): -1.95% and 2.78% and 10.68% and 12.61%; B-LQC measured concentration (after RTF(-30℃30 day)): 4.92 ng/mL and 5.16 ng/mL and 5.56 ng/mL and 5.65 ng/mL; B-MQC RE, AVERAGE (after RTF(-30℃30 day)): -2.85%; B-MQC measured concentration, AVERAGE (after RTF(-30℃30 day)): 195.09 ng/mL; B-MQC RE (after RTF(-30℃30 day)): -3.40% and 0.97% and -3.10% and -5.85%; B-MQC measured concentration (after RTF(-30℃30 day)): 193.98 ng/mL and 202.74 ng/mL and 194.57 ng/mL and 189.05 ng/mL; B-HQC RE, AVERAGE (after RTF(-30℃30 day)): -9.46%; B-HQC measured concentration, AVERAGE (after RTF(-30℃30 day)): 363.62 ng/mL; B-HQC RE (after RTF(-30℃30 day)): -9.22% and -10.28% and -11.32% and -7.01%; B-HQC measured concentration (after RTF(-30℃30 day)): 364.57 ng/mL and 360.31 ng/mL and 356.15 ng/mL and 373.44 ng/mL; Relative stability (prepared sample in autosampler for 24 h, range over LQC/MQC/HQC): 94.15-103.09%; Relative stability (rat plasma, long-term at −30 °C for 30 days, range over LQC/MQC/HQC): 88.96-98.91%; Relative stability (rat plasma, room temperature for 6 h, range over LQC/MQC/HQC (5, 200, 400 ng/mL)): 96.49-107.48%; Relative stability (rat plasma, three freeze-thaw cycles (−30 °C to 25 °C), range over LQC/MQC/HQC): 90.54-106.03%
